Test results: patent US6727277B1, “Compounds affecting cholesterol absorption” (Kansas State University Research Foundation, priority 2002, dated 2004)

Legend:
[1] = tested on: lymphatic absorption of cholesterol; experiment: Lymphatic absorption of 14C-cholesterol in lymph-cannulated rats infused with lipid emulsion; assay type: in vivo, rat
Protocol: (§1) Ten male Sprague-Dawley rats (Harlan Sprague Dawley, Inc., Indianapolis, Ind.) weighing 274.3±7.8 grams were housed individually in plastic cages in an environmentally controlled room of illumination (12:12-h light/dark cycle with the dark period from 0330 to 1530), humidity (60-70%), and temperature (22-25° C.) throughout the study. Rats had free access to deionized water and a nutritionally adequate diet (Table 1) containing soybean oil as the fat source and egg white as the protein source. The diet was formulated according to AIN-93G recommendations (In: Trace Elements in Laboratory Rodents (Watson, R. R., ed.), pp. 3-37. CRC Press, Boca Raton, Fla.). Animals were cared for in an animal care facility accredited by the American Association for the Accreditation of Laboratory Animal Care. Rats were maintained in accordance with the policies and guidelines for animal care and use procedures of the Kansas State University Institutional Animal Care and Use Committee.
At 6 wk, rats were starved overnight for 17 h but allowed water ad libitum prior to the surgical placement of a lymph cannula and duodenal infusion catheter. The mesenteric lymph duct was cannulated as described in Koo et al., J. Nutr. 131: 717-722 (2001). Briefly, while rats were under anesthesia (2.0% halothane in 2.0 L O2/min delivered via a halothane vaporizer), a midline abdominal incision was made. […] The cannula was fixed in place with ethyl cyanoacrylate glue (Elmer's Products, Columbus, Ohio) and externalized through the right flank. An indwelling infusion catheter (Silastic® laboratory tubing, i.d. 1.0 mm, o.d. 2.2 mm; Dow Coming, Midland, Mich.) was introduced via the gastric fundus into the upper duodenum and secured in place with a purse-string suture (4-0 Silk, Ethicon, Somerville, N.J.) around the fundic incision. The infusion catheter was exteriorized alongside the lymph cannula. After the abdominal incision was closed, the rats were placed in restraining cages and housed in a recovery chamber at 30° C. for postoperative recovery for 22-24 h. During the recovery period, rats were infused continuously with glucose in phosphate buffered saline (PBS) (in mmol/L: 277 glucose, 6.75 Na2HPO4, 16.5 NaH2PO4, 115 NaCl, and 5 KCl; pH 6.7) v infusion catheter at 3.0 mL/h by a syringe pump (Harvard Apparatus, Model 935, South Natick, Mass.) to ensure adequate hydration and nutritional status of the animals.
After postoperative recovery, each rat was infused with a lipid emulsion at 3 mL/h for 8 h via the duodenal catheter in subdued light. The lipid emulsion consisted of 451.8 μmol triolein (95%, Sigma Chemical, St. Louis, Mo.), 33.3 kBq [4-^14C]-cholesterol (^14C-CH; specific activity, 1.85 GBq/mmol, American Radiolabeled Chemicals, St. Louis, Mo.), 20.7 μmol cholesterol, 3.1 μmol α-tocopherol (all-rac-dl-α-tocopherol, 97%, Aldrich Chemical, Milwaukee, Wis.) as an antioxidant, and 396.0 μmol sodium taurocholate (Sigma Chemical, St. Louis, Mo.) in 24 mL of PBS buffer, pH 6.5. For half of the rats, the lipid emulsion contained 114.9 μmol compound 1 (41.9 mg). Lipid emulsion was prepared under a gentle N2 stream and subdued light for 55 min using a microprocessor-controlled ultrasonicator equipped with a microtip (XL-2020 Ultrasonic Liquid Processor, Misonix, Farmingdale, N.Y.).
(§2) During the duodenal infusion of lipid emulsion, lymph samples were collected hourly in preweighed ice-chilled centrifuge tubes containing 4 mg Na2-EDTA and 30 μg n-propyl gallate (Sigma Chemical, St. Louis, Mo.) as antioxidants. A portion of each lymph sample (100 μL) was mixed with scintillation liquid (ScintiVerse; Fisher Scientific, Fair Lawn, N.J.) and counted by scintillation spectrometry (Beckman LS-6500; Beckman Instruments, Fullerton, Calif.). The total ^14C-radioactivity appearing in hourly lymph volume (the hourly rates of ^14C-CH absorption) was expressed as a percentage of the total radioactivity infused (% dose). All samples were ice chilled and handled in subdued light. […]

[2] = tested on: lymphatic absorption of oleic acid; experiment: Lymphatic absorption of oleic acid (triolein) in lymph-cannulated rats, fatty acid analysis of lymph; assay type: in vivo, rat
Protocol: as §1, with “Animals were cared for in an animal care facility accredited by the American Association for the Accreditation of Laboratory Animal Care. Rats were maintained in accordance with the policies and guidelines for animal care and use procedures of the Kansas State University Institutional Animal Care and Use Committee.” left out
as §2, with “dose).” for “dose). All samples were ice chilled and handled in subdued light.”

Sprague-Dawley rats = experiment: Observation of behaviour and visual examination of organs of infused rats; assay type: in vivo, rat
From the text: Rats were sacrificed at the day end of the infusion, and the intestine and other organs were dissected and visually examined.

[3] = tested on: cholesterol ester transfer protein (CETP); experiment: CETP activity, crude CETP preparation derived from hamster plasma; assay type: biochemical; details: in vitro
Protocol: The inhibitory effect of compound 1 on the activity of cholesterol ester transfer protein (CETP) was measured, using a crude CETP preparation derived from hamster plasma.

[4] = molecular target: T1, cholesterol ester transfer protein (CETP) (Homo sapiens, UniProt P11597); experiment: Inhibition of CETP, purified CETP preparation; assay type: biochemical; details: FIG. 3, FIG. 4
T1 sequence (P11597 18-493): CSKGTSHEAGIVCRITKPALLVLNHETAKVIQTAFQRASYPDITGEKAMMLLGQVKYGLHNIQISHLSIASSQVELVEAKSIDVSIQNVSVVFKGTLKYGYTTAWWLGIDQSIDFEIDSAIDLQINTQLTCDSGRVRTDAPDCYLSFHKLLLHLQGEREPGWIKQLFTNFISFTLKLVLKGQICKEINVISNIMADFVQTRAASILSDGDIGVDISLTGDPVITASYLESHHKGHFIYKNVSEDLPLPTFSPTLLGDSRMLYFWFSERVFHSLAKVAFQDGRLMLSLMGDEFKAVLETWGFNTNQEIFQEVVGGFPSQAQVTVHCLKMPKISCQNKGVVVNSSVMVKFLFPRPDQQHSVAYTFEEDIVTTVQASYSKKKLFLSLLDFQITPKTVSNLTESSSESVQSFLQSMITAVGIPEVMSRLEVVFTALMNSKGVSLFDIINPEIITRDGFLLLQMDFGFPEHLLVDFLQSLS
Protocol: The effect of compound 24 on inhibition of CETP was tested using a purified CETP preparation. CETP was purified and assayed according to procedures described in Tomada, H.; Tabata, N.; Shinose, M.; Takahashi Y.; Woodruff, H. B.; Omura, S. J. Antibiotics, 52: 1101-1107 (1999).

[5] = rats, 8 h duodenal infusion of lipid emulsion with 114.9 μmol (41.9 mg) compound 1, means ± SD, n = 5

| abnormalities of intestine and other organs, visual examination (Sprague-Dawley rats; rats sacrificed at end of infusion) | IC50 [4] [µM] | SMILES | 14C-cholesterol absorbed, cumulative ([1]; 1 h, rats, means ± SD, n = 5) [% dose] | 14C-cholesterol absorbed, cumulative ([1]; 2 h, rats, means ± SD, n = 5) [% dose] | 14C-cholesterol absorbed, cumulative ([1]; 3 h, rats, means ± SD, n = 5) [% dose] | 14C-cholesterol absorbed, cumulative ([1]; 4 h, rats, means ± SD, n = 5) [% dose] | 14C-cholesterol absorbed, cumulative ([1]; 5 h, rats, means ± SD, n = 5) [% dose] | 14C-cholesterol absorbed, cumulative ([1]; 6 h, rats, means ± SD, n = 5) [% dose] | 14C-cholesterol absorbed, cumulative ([1]; 7 h, rats, means ± SD, n = 5) [% dose] | 14C-cholesterol absorbed, cumulative ([1]; 8 h, rats, means ± SD, n = 5) [% dose] | percent cholesterol absorption ([1]; after 8 hours of treatment, 41.9 mg of compound 1, control 37.69%) [%] | total cholesterol absorption compared to control rats ([1]; rats infused for eight hours) | 14C-CH absorption [1, 5] [% dose/8 h] | absorption of triolein compared to control rats ([2]; rats infused for eight hours) | Oleic acid absorbed in lymph [2, 5] [μmol/8 h] | gross motor or behavioral abnormalities (Sprague-Dawley rats; rats, 8 h infusion) | dose above which HDL total cholesterol, HDL free cholesterol and HDL cholesterol ester increased [3] |
| --- | --- | --- | --- | --- | --- | --- | --- | --- | --- | --- | --- | --- | --- | --- | --- | --- | --- |
| No abnormalities were found |  | CC1(C)CCC[C@]2(C)C3=Cc4c(cc(O)c(O)c4Cl)O[C@]3(C)CC[C@@H]12 [Compound 1, (4aS,6aR,12bS)-2H-11-Chloro-1,3,4,4a,5,6,6a,12b-octahydro-4,4,6a,12b-tetramethyl-benzo[a]xanthene-9,10-diol] | 0.12 ± 0.04 | 1.22 ± 0.25 | 2.70 ± 0.42 | 4.18 ± 0.92 | 5.68 ± 1.37 | 7.32 ± 1.78 | 9.13 ± 2.41 | 10.95 ± 3.29 | 10.95 | significantly less | 10.95 ± 3.29 | significantly less | 253 ± 79 | no gross motor or behavioral abnormalities | exceeded 250 μM |
|  | 31 | CC1(C)CCC[C@]2(C)C3=CC4=C(Cl)C(=O)C(=O)C=C4O[C@]3(C)CC[C@@H]12 [Compound 24, (4aS,6aR,12aR,12bS)-2H-11-Chloro-1,3,4,4a,5,6,6a,9,10,12b-decahydro-4,4,6a,12b-tetramethyl-benzo[a]xanthene-9,10-dione] |  |  |  |  |  |  |  |  |  |  |  |  |  |  |  |
|  | ~22 | C=Cc1ccc(OC(=O)c2ccc(O)c(N=O)c2)cc1.C=Cc1ccc(OC(=O)c2ccc(O)c(N=O)c2)cc1.C=Cc1ccc(OC(=O)c2ccc(O)c(N=O)c2)cc1.[Fe+2] [Ferroverdin A, reference compound] |  |  |  |  |  |  |  |  |  |  |  |  |  |  |  |
